Test results taken from patent US7745465B2, “Method of enhancing cellular production of molecular chaperone, hydroxylamine derivatives useful for enhancing the chaperone production and the preparation thereof” (CytRx Corporation, priority 1995, dated 2010).

Experiments:
HSP72 = assay: Heat stress induced HSP72 production in 3T3 cells; assay type: cell-based, mouse; details: 10^−5 M
Outline: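 Mouse 3T3 fibroblasts in MEM monolayer were heat-stressed 30 min at 43° C, with test compounds at 10^−5 M given 15 min before or 100 min after stress. HSP72 detected by immunoblot with SPA 810 primary and HRP secondary antibodies, quantified by densitometry.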

[1] = test system: WEHI mouse fibrosarcoma cell; assay: Serum deprivation, cell viability by MTT test (WEHI); assay type: cell-based; details: serum deprived WEHI, 10^−5 M, control 100%, serum deprived alone 74.8%, read-out: relative cell viability
Description: Experiments were carried out using WEH1 mouse fibrosarcoma and H9c2 rat heart muscle cell lines divided into three groups: • control (10% FCS fetal calf serum) • serum deprived • N-[2-hydroxy-3-(1-piperidinyl)propoxy]-3-pyridinecarboximidoyl chloride maleate (10^−5 M) treated and serum deprived 1.2(i) Serum Deprivation and MTT Test
We have screened various cell lines, drug concentrations, pretreatment and deprivation times and we have found the most appropriate conditions as follows: […] H9c2 rat heart muscle cell (n=6) and WEHI mouse fibrosarcoma cell (n=7) have been plated on 24 well plates in 10% FCS DMEM (Dulbecco modified Eagle's medium) and incubated for 2 hours at 37 C, 5% CO2. Medium has been discarded and replaced by 10% FCS DMEM containing 10^−5 M N-[2-hydroxy-3-(1-piperidinyl)propoxy ]-3-pyridinecarboximidoyl chloride maleate. […] Cell viability was measured by MTT test based on the method of Plumb et al. (Cancer Res. 49: 4435-4444 (1989)) The tetrazolium salt method involving conversion of MTT (3-(4,5-dimethylthiazol-2yl)-2,5-diphenyltetrazolium bromide) to colored formazan by alive cells, served as an indirect measurement of cell viability. […] O.D. of the plates was read at 570 nm on an ELISA plate reader (Labsystems Multiskan Biochromatic type:348). […] Relative cell viability was calculated defining control group as 100%.

yeast cells = assay: Proliferation of yeast cells; assay type: cell-based
[2] = test system: mitochondrial ATP synthesis; assay: Coupling of oxidative phosphorylation / mitochondrial ATP synthesis after heat shock (oxygraph); assay type: cell-based, Saccharomyces cerevisiae; details: 10 to 100 μM, one hour at 25° C. before 42° C. heat shock
Description: The experimental protocol for determining the impairment of oxidative phosphorylation and mitochondrial ATP synthesis in Saccharomyces cerevisiae is provided in Patriarca et al., Bio-chemistry and Cell Biology, 70:207-214, 1992, said reference being fully incorporated herein by reference.
To S. cerevisiae cells that were maintained at 25° C., varying concentration of N-[2-hydroxy-3-(1-piperidinyl)propoxy]-3-piridinecarboximidoyl chloride maleate was introduced (concentrations between 10 to 100 μM), cells were then incubated for one hour at 25° C. in the presence of N-[2-hydroxy-3-(1-piperidinyl)propoxy]-3-piridinecarboximidoyl chloride maleate. The temperature was then increased to 42° C., and the oxygraph measurements were taken as described in the Patriarca reference.

[3] = test system: isolated working rat hearts; assay: Isolated working rat hearts, 10-min. coronary occlusion and 3-min. reperfusion; details: for cardioprotection after pretreatment: 20 mg/kg
Description: After a 10-min. aerobic working perfusion, hearts (n=10 in each group) were subjected to a 10-min. coronary occlusion followed by a 3-min. reperfusion in the presence of 0.05, 0.5, 5.0, 20.0, and 50 mg/L N-[2-hydroxy-3-(1-piperidinyl)propoxy]-3-pyridine carboximidoyl chloride maleate, respectively.
After excision of the hearts, they were subjected to the coronary occlusion protocol detailed above while perfused in presence/absence of 20 mg/l N-[2-hydroxy-3-(1-piperidinyl)propoxy]-3-piridinecarboximidoyl chloride maleate.

O=C(O)/C=C\C(=O)O.OC(CON=C(Cl)c1cccnc1)CN1CCCCC1 (centres unmarked) [N-[2-hydroxy-3-(1-piperidinyl)-propoxy]3-pyridinecarboximidoyl chloride maleate]
HSP72 level relative to the stress exposed control (HSP72; treatment 15 min. before 30 min. 43° C. heat stress): +++ (>100%) | HSP72 level relative to the stress exposed control (HSP72; treatment 100 min. after 30 min. 43° C. heat stress): 0 (0 indicates that the treatment altered by ±20% the stress induced hsp72 level in the cells) | viability at 10 µM [1]: 93% | proliferative effect (yeast cells): unexpected proliferative effect | protection from the impairment of mitochondrial ATP synthesis [2]: 40-60% | cardioprotection after pretreatment ([3]; five hours before isolation of the hearts): not observable | cardioprotection after pretreatment ([3]; one hour before isolation of the hearts): still afforded cardioprotection | ischemia-induced deterioration of cardiac function ([3]; 0.05-50 mg/L, bell-shaped, 20 mg/L most pronounced): alleviated ischemia-induced deterioration of cardiac function | heart rate before ischemia ([3]; 50 mg/L): significant bradycardia | coronary flow (CF) ([3]; before ischemia, bell-shaped concentration-response): increased coronary flow (CF) | reperfusion-induced ventricular fibrillation ([3]; higher concentrations): dose-dependent antiarrhythmic effect
